Data: patent publication US6689742B1, “NY-ESO-1 peptide derivatives, and uses thereof” (Chancellors, Masters and Scholars of the University of …, priority 2000, dated 2004)

Tests used:
[1] = system: clonal CTLs; assay: recognition of peptide-pulsed T2 cells by clonal CTLs, 51Cr release; type: cell-based, human; conditions: T2 cells pulsed with varying concentrations of peptide
Protocol: Varying concentrations of peptide were used to pulse T2 cells. […] The same ^51Cr release assay described supra was used. Prior to testing the CTLs, these were assayed to determine if they each expressed a single T cell receptor.

[2] = system: ESO1 specific CTL clone ESO5; assay: recognition by specific CTLs, 51Cr release from peptide-pulsed T2 cells; type: cell-based, human; conditions: for EC50: T2 targets, CTL clone ESO5, lymphocyte:target ratio 30:1, 4 hours, read-out: Peptide ([nM] 50%), concentration giving 50% maximal activity; for Relative antigenic activity: [nM] 50% of SEQ ID NO: 2 divided by [nM] 50% of test peptide
Protocol: As indicated, supra, the peptides described herein were tested for recognition by specific CTLs. In these experiments, target T2 cells were labelled with ^51Cr for 1 hour, at 37° C., and then washed two times. Sample (1000 labelled cells in 50 μl) were then incubated with varying concentrations of peptide, for 15 minutes. Effector cells (50 μl) were then added. These effector cells are ESO1 specific CTL clone ESO5. The lymphocyte: target ratio was 30:1. Chromium release was measured after 4 hours of incubation at 37° C., by testing 100 μl supernatant samples.
Specific percent lysis was calculated as: [formula]

[3] = system: NY-ESO-1 157-165 specific CTLs; assay: CTL assays of modified peptides; type: cell-based, human
Protocol: All of these peptides were tested in CTL assays of the type described supra.

[4] = system: HLA-A2 restricted NY-ESO-1 specific CTLs (CTL NW38-IVS-1); assay: 51Cr release cytotoxicity assay, peptide-pulsed T2 cells with CTL NW38-IVS-1; type: cell-based, human; conditions: 10 ug/ml peptide, effector/target ratio 90:1, four hours
Protocol: Samples of T2 cells were labelled with 100 uCi of Na(^51Cr)O4, using standard methods, and were then washed three times, followed by incubation with 10 ug/ml peptide and 2.5 ug/ml of β2-microglobulin. Incubation was for one hour, at room temperature. Then responder cells (100 ul of a suspension of CTL NW38-IVS-1) were added, at an effector/target ratio of 90:1, and incubated for four hours in a water saturated atmosphere, with 5% CO2, at 37° C. Then, plates were centrifuged at 200×g for five minutes, 100 ul of supernatant was removed, and radioactivity was measured. The percentage of ^51Cr release was determined in accordance with known strategies.

[5] = target: HLA-A*0201 molecules (Homo sapiens, UniProt P04439, D140Y/D185E/D98H/E176V/E277Q/G131W/G231S/I119V/I121R/I166T/I218V/L300P/L318F/N151K/N90K/P208A/P217A/Q86G/Q94H/R138H/R169H/T345S); assay: functional competition binding assay (inhibition of lysis of SEQ ID NO: 4 pulsed T2 cells by CTL clone LAU 132/2)
Protocol: The functional competition binding assay employed is that taught by Valmori, et al., J. Immunol 161:6956-6962 (1998), incorporated by reference, but elaborated upon herein.
(SEQ ID NO: 4) is known to bind to HLA-A*0201 molecules, and to provoke lysis by an HLA-A*0201 restricted CTL clone, known as LAU 132/2. […] T2 cells were labelled with ^51Cr, in the presence of anti class I monoclonal antibody W6/32. […] Then, a suboptimal dose (1 nM) of SEQ ID NO: 4 (50 μl) were added, together with 50 μl of the T cells (5000 cells/well). ^51Cr release was measured after 4 hours incubation at 37° C. […] In order to facilitate the comparison, relative competitive activity of each peptide was calculated as [nM] […] 50% value determined for the test peptides.

[6] = system: NY-ESO-1 specific T cells (tumor infiltrating lymphocytes); assay: IFN-γ ELISPOT of short term tumor infiltrating lymphocyte culture with T2 cells plus peptide; type: cell-based, human; conditions: 1 μM peptide, 2×10^3 cultured cells/well, 5×10^4 T2 cells/well; control cultures 19 spots
Source text: Samples of lymph nodes or metastatic lesions were taken from a patient who presented slowly progressive melanoma with recurrent metastases, all of which were localized to the same paravertebral region. […] Further, the patient's serum indicated high titer of anti-NY-ESO-1 antibodies.
The surgically resected lymph nodes or metastatic lesions were finely minced in sterile, RPMI 1640 medium that had been supplemented with 10% fetal calf serum. Suspensions of cells were placed in 24-well tissue culture plates, in 2 ml of Iscove's Dulbecco medium, supplemented with 0.24 mM Asn, 0.55 mM Arg, 1.5 mM Gln, 10% pooled human A+ serum, 100 U/ml IL-2, and 10 ng/ml of IL-7. The cells were cultured for 2-3 weeks, prior to being assayed via IFN-γ ELISPOT, in accordance with Czerkinsky, et al, J. Immunol. Meth 110:29 ([…]), incorporated by reference. In brief, 2×10^3 cells/well of the short term culture referred to supra were combined with either 5×10^4 T2 cells/well, or the same number of T2 cells, plus 1 μM of one of SEQ ID NOS: 1-3. Each culture was run in duplicate.

[7] = system: CTLs; assay: 51Cr release assay in presence of reducing agent (DTT or TCEP); type: cell-based, human; conditions: 200 μM DTT or TCEP
[8] = system: NA8-MEL (A2+, NY-ESO-1-) cells; assay: 51Cr release assay, CTL ESO5 on A2+ melanoma cell lines with or without peptide; type: cell-based, human; conditions: exogenously added peptide; not lysed when absent
Protocol: Cell lines NA8-MEL (A2^+, NY-ESO-1^−), SK-MEL37 (A2^+, NY-ESO-1^+), and Me 275 (A2^+, NY-ESO-1^+) were tested, in ^51Cr release assays, as described supra.

[9] = system: SEQ ID NO: 2 specific CTLs; assay: killing specificity of tetramer-sorted CTLs, 51Cr release; type: cell-based, human; conditions: 1 μM peptide, effector/target ratios 1:1 and 0.3:1; unpulsed T2 not killed
Protocol: These tetramers were then used to stain a sample of cells taken from a patient who had been diagnosed previously as having a NY-ESO-1 positive melanoma. See Dunbar, et al., J. Immunol 162(12):6959-62(1999) and Ser. No. 09/049,850, filed Mar. 27, 1998, incorporated by reference. In brief, however, peripheral blood lymphocyte (“PBL”) samples were stained with tetramers for 15 minutes at 37° C., followed by washing in PBS/1% FCS at 37° C., followed by incubation with a labelled, anti-CD8 antibody for 30 minutes, on ice. The cells were then washed three times, in ice cold PBS/1% FCS, and were then analyzed via flow cytometry.
The CTLs described supra were then tested for killing specificity. […] Killing was determined using the ^51Cr release assay described supra.

Row | Substance | recognition by all T cells (clonal CTLs) [1] | EC50 [2] [nM] | stimulation of HLA-A2 restricted NY-ESO-1 specific CTLs (51Cr release) [4] | other results
1 | 157-164: a peptide consisting of the first 8 amino acids of SEQ ID NO: 11 (SLLMWITQ; listed as Homo sapiens) | failed to recognize |  |  | 
2 | SLLMWITQCF (listed as Homo sapiens) [SEQ ID NO: 11] | recognized |  |  | 
3 | SLLMWITQL [SEQ ID NO: 7] |  | 0.01 |  | increase of recognition by NY-ESO-1 157-165 specific CTLs as compared to SEQ ID NO: 2 [3]: about 1000 fold
4 | SLLMWITQI (Mutagen 9 Synthesized. At position 9, of SEQ ID NO2,Cys is replaced by Ile) [SEQ ID NO: 12] |  |  |  | increase of recognition by NY-ESO-1 157-165 specific CTLs as compared to SEQ ID NO: 2 [3]: about 1000 fold
5 | QLSLLMWIT [SEQ ID NO: 3, natural NY-ESO-1 peptide] | recognized | 50 | three best stimulators | Relative antigenic activity [2]: 0.012; fold less efficient competitor than SEQ ID NO: 4 [5]: 100 fold
6 | SLLMWITQCI (Mutagen 10 Synthesized. At position 10 of SEQ ID NO 11, Phe is replaced by Ile) [SEQ ID NO: 14] |  |  |  | recognition compared to SEQ ID NO: 2, in words [3]: recognized more efficiently
7 | SLLMWITQCFL [SEQ ID NO: 1, natural NY-ESO-1 peptide] | failed to recognize | 50 | three best stimulators | Relative antigenic activity [2]: 0.012; mean number of spots (IFN-γ ELISPOT) [6]: 396 spots
8 | SLLMWITQC [SEQ ID NO: 2, natural NY-ESO-1 peptide, parental peptide] | recognized | 0.6 | three best stimulators | recognition by CTL, in words ([2]; CTL clone ESO5, compared with parental peptide SEQ ID NO: 2): optimally recognized antigenic peptide; increase of antigenicity in the presence of reducing agent [7]: 10 fold; mean number of spots (IFN-γ ELISPOT) [6]: 424 spots; lysis of NA8-MEL by CTL ESO5 when peptide added [8]: lysed; killing of peptide-pulsed T2 cells by CTLs [9]: killed
